# What was measured:
# [1] = system: HIV-1 (LAV-1 strain) in MOLT-4 cells; assay: Inhibitory activity of HIV syncytia formation: HIV-1 acute-phase infection; type: cell-based; conditions: in concentrations of at least 1.0 μM; 48 hours
# Description: a) Activity of the medicament on HIV-1 acute-phase infection:
# Cells obtained by culturing MOLT-4 (American Type Culture Collection ATCC CRL-1582) in RPMI medium (GIBCO Corp.) containing 10% FBS (fetal bovine serum: GIBCO Corp.) (culture condition: 37° C., 5% CO2 /95% air) were prepared to aliquot number of cells (1×10^5 cells/50 μl). The cell suspension, 50 μl and the liquid preparation, 50 μl containing HIV-1 (LAV-1 strain, Wain-Hobson et al., Cell 40: 9-17, 1985) in RPMI medium with 10% FBS were put into each well of a 96 hole microplate and cultured for 48 hours (Infectious condition of MOLT-4 and HIV-1: M.O.I.=4.0).
# Each compound was dissolved in RPMI medium containing 10% FBS at the final concentration as shown in FIG. 1 to prepare the medicament solution. The medicament solution, 100 μl was added to the mixture of MOLT-4 cell preparation and HIV-1 preparation at the time of mixing with MOLT-4 and HIV-1 to prepare the final volume of the liquid, 200 μl. The number of formed syncytia were microscopically counted.
# Tested compounds were: FAS (fasudil hydrochloride, Chem. Pharm. Bull., 40 (3), 770-773, (1992)), C kinase inhibitor H-7 (1-5-isoquinolinylsulfonyl)-2-methyl-piperazine, Sigma Corp.), and calmodulin kinase II inhibitor KN-62 (1-(N,O-bis-[5-isoquinolinylsulfonyl]-N-methyl-L-tyrosyl)-4-phenyl-piperazine, Sigma Corp., Neuroscience Lett., 129, 47 (1991)) .
# The control group without the compound was prepared by replacing the medicament solution, 100 μl.
# Syncytium formation activity was calculated by comparing the syncytia formation in the test group to that of the control group in the following equation.
# Syncytium formation activity=number of syncytia formed in the medicament-added group/number of syncytia formed in the no-medicament-added group.
# Acute toxicity in mice = assay: Acute toxicity in mice; parameters: species or system mouse (Slc: ddy, 5 weeks); conditions: mouse, in vivo, iv, i. v., male
# Description: Acute toxicity of the compounds of the present invention were conducted on rats and mice, and low toxicity was confirmed.
# [2] = system: Env (gp120) protein, HIV-1 infected MOLT-4 cells; assay: Suppressive action on expression of Env (gp120) protein on the surface of cells; type: cell-based; conditions: FIG. 3; Env positive cells after 5 days
# Description: (Suppressive action on expression of Env (gp120) protein on the surface of cells.)
# Cells obtained by culturing MOLT-4 (culture condition: 37° C., 5% CO2 /95% air, RPMI medium (GIBCO Corp.) containing 10% FBS) were adjusted to a preferable number of cells (1×10^5 cells/50 μl ). The cell suspension, 50 μl, (infected with MOLT-4 and HIV-1: M.O.I.=1.0) was put in a 96 hole microplate and cultured for 1 hour to infect the cells.
# A solution of the compound shown below, 100 μl, was added in each well and cultured for 5 days. The cultured solution was transferred into a plastic tube (Eppendorf Corp.) and centrifuged to collect the cells. The cells were treated with mouse anti-Env gp120 monoclonal antibody (Replingen Inc.) as a primary antibody and FITC (Fluorescein Isothiocyanate) labelled goat anti-mouse IgG (Cappel Corp.) as a secondary antibody to fluoresce. The number of fluorescent cells was fluoroscopically calculated by counting fluorescent cells according to an indirect fluorescent antibody technique (Techniques in HIV Research, Ed. A. Aldoriny and B. D. Walker, Stokton Press, New York, 1990).
# Env positive cells (%) was calculated by the following equation:
# Env positive cells (%)=(FITC) positive cells/total cells)×100
# Compounds: FAS, H-7 and KN-62.
# Control: solution without compound was used.
# [3] = system: Herpes simplex virus type I; assay: Inhibitory action for plaque formation of Herpes simplex virus type I; type: cell-based; conditions: mean of two, control 51
# Description: Experiments were performed according to a method described in Antiviral Chemistry and Chemotherapy, 5 (6), 366-371, 1994 and Experimental Virology, Ed. by NIH Japan alumni assoc., Maruzen Publ. 1982, p. 65-78 or p. 331-340.
# Vero cells cultured in the medium (Dulbecco's modified MEM added with 10% FBS) were detached by trypsin (Sigma Corp.). The detached cells were suspended by 2×10^5 cells/ml in the same medium, and placed in the wells of a 48 hole plate. The plate was incubated at 37° C. under 5% CO2 for about one day to complete a full-sheet of the cells in all wells. After incubation, cultured supernatant was removed. A solution (50 μl) containing the compound diluted with 4-fold stepwise dilution by virus culture medium (MM: Dulbecco's modified MEM added with 2% FBS), was added thereto.
# A viral solution, 50 μl, in which the number of virus (parainfluenza virus or Herpes simplex virus type I) was adjusted to about 50 pfu (plaque forming unit)/50 μl by MM, was added to each well. MM 400 μl containing 1% methylcellulose was added in each well to provide a compound-added test group. A control group was prepared by adding the viral culture medium without adding the test compound.
# The groups were incubated at 37° C. under 5% CO2 for three days to form plaques and the number of plaques in each well was counted.
# The test compounds were FAS, and the compound of formula [I] where R^1 is hydroxy. The final concentration of the compound in the solution was set to 100, 25, 6.3 and 1.6 μg/ml, respectively. Each test group included 2 wells and a mean of the plaque numbers was obtained.
compound,measurement,setting,value
"Cl.O=S(=O)(c1cccc2cnccc12)N1CCCNCC1 [FAS, hexahydro-1-(5-isoquinoline-sulfonyl)-1H-1,4-diazepine hydrochloride]",inhibition of syncytia formation,[1],90%
same,LD50,Acute toxicity in mice,63.7 mg/kg
same,inhibitory activity for Env expression,[2],strong inhibitory activity for Env expression
same,Plaque No.,[3]; 1.6 μg/ml,51
same,Plaque No.,[3]; 6.3 μg/ml,46
same,Plaque No.,[3]; 25 μg/ml,49
same,Plaque No.,[3]; 100 μg/ml,0

# Reference: patent US5733904A, “Method for prevention and treatment of viral infectious diseases for viral suppression” (priority 1996, dated 1998)
